Assay results as given in patent US5759787A, “Kinase assay” (Tularik Inc., priority 1996, dated 1998).
Where no end group is shown, it is not given here.

System: PKA
Assay: Radioactive PKA kinase reaction with phosphocellulose or streptavidin capture
Format: biochemical
Settings: substrate peptide
Protocol: The peptide substrates were added in 90 μl assay buffer containing 20 mM Tris-HCl pH 7.5, 2.5 mM MgCl2, and 100 μM ATP for non-radioactive detection, or 10 μM cold ATP supplemented with 0.5 μCi/well [γ-^32 P]ATP for radioactive detection, unless indicated otherwise. Freshly reconstituted PKA (1.25 ng/well in 10 μl, unless indicated otherwise) was added last and the samples were incubated for 30 minutes at room temperature. Depending on the detection method the samples were further processed as described below.
After performing a PKA kinase reaction for 30 minutes, the samples were divided into two. 50 μl were transferred into wells of streptavidin coated microtiter plates, to allow the capture of the biotinylated peptides for additional 50 minutes. The wells were washed five times with water, dried, broken into scintillation vials and counted. The other half of the reaction mixture was further incubated in the original plate for 50 minutes, then TCA was added to the reaction mixture (10% final concentration) and 30 μl was spotted onto P81 paper (1×1 inch squares). After 20 minutes the squares were washed three times with water, dried, placed into scintillation vials and counted. A microtiter plate version of the phosphocellulose capture method was also used with similar results. For src only the phosphocellulose capture method was used.

Km: > 20 µM
Substance: bio-RRRVTSAARRS (not fully specified (N-terminus); printed as bio-RRRVTSAARRS) [peptide 2]
